Tests used:
Type in all cases: in vivo
[1] = system: barnyardgrass (Echinochloa crus-galli); experiment: Test A pre-/postemergence plant response; settings: for Barnyardgrass plant response rating: visual injury, 0 to 100 scale (0 no effect, 100 complete control), approx. ten days
Text: (§1) Seeds of barnyardgrass (Echinochloa crus-galli), large crabgrass (Digitaria sanguinalis), giant foxtail (Setaria faberii), morningglory (Ipomoea spp.), pigweed (Amaranthus retroflexus), velvetleaf (Abutilon theophrasti), wheat (Triticum aestivum) and corn (Zea mays) were planted into a blend of loam soil and sand and treated preemergence with a directed soil spray using test chemicals formulated in a non-phytotoxic solvent mixture which included a surfactant. At the same time these species were also treated with postemergence applications of test compounds formulated in the same manner.
(§2) Plants ranged in height from two to ten cm and were in the one- to two-leaf stage for the postemergence treatment. Treated plants and untreated controls were maintained in a greenhouse for approximately ten days, after which time all treated plants were compared to untreated controls and visually evaluated for injury. Plant response ratings, summarized in Table A, are based on a 0 to 100 scale where 0 is no effect and 100 is complete control. A dash (-) response means no test result.

corn (Zea mays) = experiment: Test A pre-/postemergence plant response; settings: for Corn plant response rating: visual injury, 0 to 100 scale (0 no effect, 100 complete control), approx. ten days
Text: as §1, §2

[2] = system: giant foxtail (Setaria faberii); experiment: Test A pre-/postemergence plant response; settings: for Foxtail, Giant plant response rating: visual injury, 0 to 100 scale (0 no effect, 100 complete control), approx. ten days
Text: as §1, §2

[3] = system: large crabgrass (Digitaria sanguinalis); experiment: Test A pre-/postemergence plant response; settings: for Crabgrass, Large plant response rating: visual injury, 0 to 100 scale (0 no effect, 100 complete control), approx. ten days
Text: as §1, §2

[4] = system: morningglory (Ipomoea spp.); experiment: Test A pre-/postemergence plant response; settings: for Morningglory plant response rating: visual injury, 0 to 100 scale (0 no effect, 100 complete control), approx. ten days
Text: as §1, §2

[5] = system: pigweed (Amaranthus retroflexus); experiment: Test A pre-/postemergence plant response; settings: for Pigweed plant response rating: visual injury, 0 to 100 scale (0 no effect, 100 complete control), approx. ten days
Text: as §1, §2

[6] = system: velvetleaf (Abutilon theophrasti); experiment: Test A pre-/postemergence plant response; settings: for Velvetleaf plant response rating: visual injury, 0 to 100 scale (0 no effect, 100 complete control), approx. ten days
Text: as §1, §2

[7] = system: wheat (Triticum aestivum); experiment: Test A pre-/postemergence plant response; settings: for Wheat plant response rating: visual injury, 0 to 100 scale (0 no effect, 100 complete control), approx. ten days
Text: as §1, §2

[8] = system: barnyardgrass (Echinochloa crus-galli); experiment: Test B flooded paddy test; settings: for Plant response rating, Flood, Barnyardgrass: 250 g ai/ha, flooded paddy test, visual rating on 0 to 100 scale (0 no effect, 100 complete control) after 13 to 15 days; for Plant response rating, Barnyardgrass: Flood (flooded paddy test), 13 to 15 days
Procedure, shortened: (§3)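 Rice, umbrella sedge, ducksalad and barnyardgrass were grown to the 2-leaf stage, flooded to 3 cm, and compound was applied directly to the paddy water, with that depth kept throughout. After 13 to 15 days in the greenhouse, plants were visually rated against controls on a 0 (no effect) to 100 (complete control) scale.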

[9] = system: ducksalad (Heteranthera limosa); experiment: Test B flooded paddy test; settings: for Plant response rating, Flood, Ducksalad: 250 g ai/ha, flooded paddy test, visual rating on 0 to 100 scale (0 no effect, 100 complete control) after 13 to 15 days; for Plant response rating, Ducksalad: Flood (flooded paddy test), 13 to 15 days
Procedure, shortened: as §3

rice (Oryza sativa) = experiment: Test B flooded paddy test; settings: for Plant response rating, Flood, Rice: 250 g ai/ha, flooded paddy test, visual rating on 0 to 100 scale (0 no effect, 100 complete control) after 13 to 15 days; for Plant response rating, Rice: Flood (flooded paddy test), 13 to 15 days
Procedure, shortened: as §3

[10] = system: umbrella sedge (Cyperus difformis); experiment: Test B flooded paddy test; settings: for Plant response rating, Flood, Sedge, Umbrella: 250 g ai/ha, flooded paddy test, visual rating on 0 to 100 scale (0 no effect, 100 complete control) after 13 to 15 days; for Plant response rating, Sedge, Umbrella: Flood (flooded paddy test), 13 to 15 days
Procedure, shortened: as §3

[11] = Postemergence, 125 g ai/ha, 0 to 100 scale where 0 is no effect and 100 is complete control
[12] = Preemergence, 125 g ai/ha, 0 to 100 scale, 0 = no effect, 100 = complete control
[13] = Preemergence, 500 g ai/ha, 0 to 100 scale, 0 = no effect, 100 = complete control
[14] = 62 g ai/ha, scale of 0 to 100 where 0 is no effect and 100 is complete control
[15] = 125 g ai/ha, scale 0 to 100, 0 is no effect, 100 is complete control
[16] = Flood, 31 g ai/ha, scale 0 to 100 (0 no effect, 100 complete control)

## Cc1ccc(Cl)cc1-n1c(-c2cc(F)cc(F)c2)ncc(C(=O)C2=C(O)CCCC2=O)c1=O [Compound 179]
[1]; [11]
  Plant response rating, Barnyardgrass: 60
[1]; Postemergence, 500 g ai/ha
  Barnyardgrass plant response rating: 90
[1]; [12]
  Plant response rating, Barnyardgrass: 0
[1]; [13]
  Plant response rating, Barnyardgrass: 70
Corn (Zea mays); [11]
  Plant response rating, Corn: 10
Corn (Zea mays); Postemergence, 500 g ai/ha
  Corn plant response rating: 80
Corn (Zea mays); [12]
  Plant response rating, Corn: 0
Corn (Zea mays); [13]
  Plant response rating, Corn: 0
[2]; [11]
  Plant response rating, Foxtail, Giant: 40
[2]; Postemergence, 500 g ai/ha
  Foxtail, Giant plant response rating: 90
[2]; [12]
  Plant response rating, Foxtail, Giant: 10
[2]; [13]
  Plant response rating, Foxtail, Giant: 90
[3]; [11]
  Plant response rating, Crabgrass, Large: 60
[3]; Postemergence, 500 g ai/ha
  Crabgrass, Large plant response rating: 100
[3]; [12]
  Plant response rating, Crabgrass, Large: 20
[3]; [13]
  Plant response rating, Crabgrass, Large: 100
[4]; [11]
  Plant response rating, Morningglory: 60
[4]; Postemergence, 500 g ai/ha
  Morningglory plant response rating: 100
[4]; [12]
  Plant response rating, Morningglory: 0
[4]; [13]
  Plant response rating, Morningglory: 40
[5]; [11]
  Plant response rating, Pigweed: 90
[5]; Postemergence, 500 g ai/ha
  Pigweed plant response rating: 100
[5]; [12]
  Plant response rating, Pigweed: 50
[5]; [13]
  Plant response rating, Pigweed: 90
[6]; [11]
  Plant response rating, Velvetleaf: 100
[6]; Postemergence, 500 g ai/ha
  Velvetleaf plant response rating: 100
[6]; [12]
  Plant response rating, Velvetleaf: 50
[6]; [13]
  Plant response rating, Velvetleaf: 100
[7]; [11]
  Plant response rating, Wheat: 40
[7]; Postemergence, 500 g ai/ha
  Wheat plant response rating: 80
[7]; [12]
  Plant response rating, Wheat: 0
[7]; [13]
  Plant response rating, Wheat: 60
[8]
  Plant response rating, Flood, Barnyardgrass: 30
[8]; [14]
  Plant response rating, Barnyardgrass: 10
[8]; [15]
  Plant response rating, Barnyardgrass: 20
[8]; [16]
  Barnyardgrass plant response rating: 0
[9]
  Plant response rating, Flood, Ducksalad: 100
[9]; [14]
  Plant response rating, Ducksalad: 90
[9]; [15]
  Plant response rating, Ducksalad: 95
[9]; [16]
  Ducksalad plant response rating: 90
Rice (Oryza sativa)
  Plant response rating, Flood, Rice: 65
Rice (Oryza sativa); [14]
  Plant response rating, Rice: 0
Rice (Oryza sativa); [15]
  Plant response rating, Rice: 25
Rice (Oryza sativa); [16]
  Rice plant response rating: 0
[10]
  Plant response rating, Flood, Sedge, Umbrella: 95
[10]; [14]
  Plant response rating, Sedge, Umbrella: 80
[10]; [15]
  Plant response rating, Sedge, Umbrella: 85
[10]; [16]
  Sedge, Umbrella plant response rating: 40

## CCn1c(-c2cccc(C)c2)ncc(C(=O)C2=C(O)C3CCC(C3)C2=O)c1=O (stereo not shown) [Compound 231]
[1]; [11]
  Plant response rating, Barnyardgrass: 70
[1]; Postemergence, 500 g ai/ha
  Barnyardgrass plant response rating: 90
[1]; [12]
  Plant response rating, Barnyardgrass: 0
[1]; [13]
  Plant response rating, Barnyardgrass: 60
Corn (Zea mays); [11]
  Plant response rating, Corn: 0
Corn (Zea mays); Postemergence, 500 g ai/ha
  Corn plant response rating: 40
Corn (Zea mays); [12]
  Plant response rating, Corn: 0
Corn (Zea mays); [13]
  Plant response rating, Corn: 20
[2]; [11]
  Plant response rating, Foxtail, Giant: 60
[2]; Postemergence, 500 g ai/ha
  Foxtail, Giant plant response rating: 80
[2]; [12]
  Plant response rating, Foxtail, Giant: 0
[2]; [13]
  Plant response rating, Foxtail, Giant: 60
[3]; [11]
  Plant response rating, Crabgrass, Large: 50
[3]; Postemergence, 500 g ai/ha
  Crabgrass, Large plant response rating: 70
[3]; [12]
  Plant response rating, Crabgrass, Large: 40
[3]; [13]
  Plant response rating, Crabgrass, Large: 90
[4]; [11]
  Plant response rating, Morningglory: 90
[4]; Postemergence, 500 g ai/ha
  Morningglory plant response rating: 100
[4]; [12]
  Plant response rating, Morningglory: 10
[4]; [13]
  Plant response rating, Morningglory: 80
[5]; [11]
  Plant response rating, Pigweed: 80
[5]; Postemergence, 500 g ai/ha
  Pigweed plant response rating: 90
[5]; [12]
  Plant response rating, Pigweed: 50
[5]; [13]
  Plant response rating, Pigweed: 80
[6]; [11]
  Plant response rating, Velvetleaf: 90
[6]; Postemergence, 500 g ai/ha
  Velvetleaf plant response rating: 100
[6]; [12]
  Plant response rating, Velvetleaf: 50
[6]; [13]
  Plant response rating, Velvetleaf: 60
[7]; [11]
  Plant response rating, Wheat: 0
[7]; Postemergence, 500 g ai/ha
  Wheat plant response rating: 0
[7]; [12]
  Plant response rating, Wheat: 0
[7]; [13]
  Plant response rating, Wheat: 0
[8]
  Plant response rating, Flood, Barnyardgrass: 40
[8]; [14]
  Plant response rating, Barnyardgrass: 40
[9]
  Plant response rating, Flood, Ducksalad: 0
[9]; [14]
  Plant response rating, Ducksalad: 0
Rice (Oryza sativa)
  Plant response rating, Flood, Rice: 0
Rice (Oryza sativa); [14]
  Plant response rating, Rice: 0
[10]
  Plant response rating, Flood, Sedge, Umbrella: 75
[10]; [14]
  Plant response rating, Sedge, Umbrella: 0
